Consider one molecule from publication PMC6392468, “Inhibition of lipid droplet formation by Ser/Thr protein phosphatase PPM1D inhibitor, SL-176” (PLoS ONE, 2019).

Structures are written as SMILES.

The assay has as its target T1, PPM1D (Mus musculus, UniProt Q9QZ67).
T1 construct: His-mousePPM1D (1–413)
T1 sequence (Q9QZ67 1-413): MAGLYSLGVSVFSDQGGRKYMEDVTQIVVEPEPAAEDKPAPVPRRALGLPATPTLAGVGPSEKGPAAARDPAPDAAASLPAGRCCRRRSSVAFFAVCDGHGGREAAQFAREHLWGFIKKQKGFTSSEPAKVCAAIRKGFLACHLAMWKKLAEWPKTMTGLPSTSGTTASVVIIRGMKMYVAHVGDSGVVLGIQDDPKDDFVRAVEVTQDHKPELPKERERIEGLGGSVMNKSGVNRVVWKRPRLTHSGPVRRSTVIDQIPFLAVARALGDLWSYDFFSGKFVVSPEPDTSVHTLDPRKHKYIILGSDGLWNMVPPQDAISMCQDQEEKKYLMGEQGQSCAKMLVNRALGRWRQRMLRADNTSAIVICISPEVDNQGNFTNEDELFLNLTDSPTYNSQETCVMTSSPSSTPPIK
Put plainly: in vitro phosphatase assay, released free phosphate by BIOMOL GREEN, p53-derived peptide substrate. The format is biochemical.

For orientation: IC50 means the point on the concentration scale where inhibition reaches its midpoint.

On to `CC[Si](CC)(CC)O[C@@H]1CCC[C@@H]2[C@@H]1C[C@H](O[Si](C)(C)C(C)(C)C)C[C@@]2(C)C(=O)O` [SL-176], for which the IC50 came out at 112 ± 12 nM.
